Results taken from PubChem BioAssay (NCI).
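Values below derive from 48-hour exposures of cells grown in 96-well plates, with endpoints linearly interpolated between the two concentrations bracketing the appropriate inhibition level. Here, GI50 denotes the concentration required for 50% inhibition of growth. TGI is the concentration that stops growth completely.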

What was measured:
Experiment in all cases: inhibition of tumour cell growth, NCI panel, 48 h
[1] = system: HCT-116 colon
[2] = system: SF-268 CNS
[3] = system: U251 CNS
[4] = system: T-47D breast
[5] = system: EKVX NSCLC
[6] = system: SF-295 CNS
[7] = system: MOLT-4 leukemia
[8] = system: SNB-75 CNS
[9] = system: K-562 leukemia
[10] = system: LOX IMVI melanoma

Row | SMILES | GI50 [1] [µM] | TGI [1] [µM] | GI50 [2] [µM] | TGI [2] [µM] | GI50 [3] [µM] | TGI [3] [µM] | GI50 [4] [µM] | TGI [4] [µM] | GI50 [5] [µM] | TGI [5] [µM] | GI50 [6] [µM] | TGI [6] [µM] | GI50 [7] [µM] | TGI [7] [µM] | GI50 [8] [µM] | TGI [8] [µM] | GI50 [9] [µM] | TGI [9] [µM] | GI50 [10] [µM] | TGI [10] [µM]
1 | CCOC(=O)c1ccc(N2NC(=O)/C(=C/c3ccc([N+](=O)[O-])o3)C2=O)cc1 | 8.37 | 21.4 | 24.2 | > 55.3 | 39.9 | > 66.6 | 8.92 | 33.4 | > 37.7 | > 53.1 | > 39 | > 56.1 | 11.3 | 53.1 | 27.6 | > 51.5 | 9.64 | > 73.3 | 17.7 | 34.4
2 | CCCN(CCC)c1ccc(/C=N/NC(=O)c2cccnc2)c(C)c1 | 13.8 | 29.3 | 13.9 | 31.2 | 13.3 | 26 | 6.35 | 27.6 | 13.5 | 37.2 | 10.7 | 25.5 | 16.5 | 42.6 | 12.5 | 36.1 | 10.5 | 54.6 | 13.5 | 27.6
3 | COc1cc2c3c(n(CCCN=[N+]=[N-])c(=O)c2cc1OC)-c1ccccc1C3=O | 1.81 | 17.8 | > 100 | > 100 | 1.61 | 24.5 | > 100 | > 100 | > 100 | > 100 | 2.87 | 9.86 | 0.702 | 3.38 | 2.53 | 8.49 | 3.48 | > 100 | 1.33 | 9.14
4 | CN1CCN(C)C1c1ccc(C2N(C)CCN2C)cc1 | 17.8 | 38 | 39.8 | > 100 | 39.7 | > 100 | 20.4 | > 100 | > 100 | > 100 | > 100 | > 100 | 26.1 | 62 | > 100 | > 100 | 38.5 | > 100 | 31.3 | > 100
5 | CC1(C)C(=O)/C=C\C(=O)C(C)(C)C2=CC=C(O2)C(C)(C)C(=O)C(Br)C(Br)C(=O)C(C)(C)C2=CC=C1O2 (stereo not given) |  | 65.6 |  | > 100 |  | > 81.8 |  | > 100 |  | > 100 |  | > 100 |  | 30.6 |  | > 80.3 |  | 45.4 |  | > 59.6
6 | CC(C)[C@@]12C[C@@H](OC(=O)C3CO3)[C@@](C)(O1)[C@@H]1CC[C@@H](C)[C@H]1[C@@H]2OC(=O)/C=C/c1ccccc1 (stereo not given in full) | 23.8 | > 100 | 12.1 | 40.2 | 18.7 | 44.3 | 18.8 | > 100 | 18.2 | 50.9 | 16.9 | 32.2 | 24.7 | > 100 | 10.8 | 30.9 | 33.2 | > 100 | 17 | 36.7
7 | Nc1nc(Sc2ccc([N+](=O)[O-])c3nonc23)c2ncn(C3OC(CO)C(O)C3O)c2n1 (stereo not given) | 0.428 | 13.6 | 0.938 | 21.3 | 0.685 | > 85.1 | 1.07 | > 49.5 | 2.88 | > 49.8 | 1.95 | > 100 | 0.325 | > 37.5 | 0.886 | > 100 | 0.279 | > 90.5 | 0.221 | 2.76
8 | COc1cc2c(/C=C3\C(=O)N(C)c4ccccc43)c[nH]c2cc1C | 0.369 | > 41.7 | 0.103 | > 43.9 | 0.499 | 29.6 | > 39.3 | > 100 | 8.81 | > 100 | 0.374 | 15.6 | 5.83 | > 64 | 4.34 | > 100 | 1.68 | > 100 | 0.869 | > 47.9
9 | CCCCN(CCCC)P(=O)(Oc1ccccc1)Oc1ccccc1 | 3.39 | 16.8 | 8.86 | 21.9 | 5.59 | 19.1 | 7.46 | 33.1 | 3.39 | 17.2 | 3.49 | 16.1 | 6.18 | 38.4 | 11.3 | 27.3 | 7.01 | > 100 | 12.9 | 26.5
